Measurements reported in patent publication US12220421B2, “Inhibitors of C. difficile spore germination” (THE BOARDS OF REGENTS OF THE NEVADA SYSTEM OF HIGHER …, priority 2021, dated 2025).
“Also recorded” adds a separate entry of the source. Read-outs that look alike come from different tables or passages of the source.

Columns and labels:
[1] = Incubation with feces / murine microbiota (degradation); assay type: in vitro ADME; details: 3 days incubation with feces
[2] = tested on: C. difficile R20291 spores; assay: C. difficile spore germination assay (optical density, OD580); details: for IC50 / activity at 125 µM: Clostridioides difficile, R20291SPORES; for % Germination: compound 125 uM
C. difficile 630 strain [3] = details: literature, cited from earlier work; for IC50: read-out: IC50 against 630 strain
[4] = tested on: C. difficile R20291 spores; details: literature, cited from earlier work
[5] = target: C. difficile spore germination; details: literature values; read-out: Ki, inhibition of germination; cited from earlier work
C. difficile 630 strain [6] = assay: Spore germination inhibition against C. difficile 630 strain (literature); assay type: cell-based
[7] = Table 3, 6 mM taurocholate, 12 mM glycine
[8] = read-out: % Germination, Table 3, compound 125 μM, 6 mM taurocholate, 12 mM glycine, ± standard deviation
[9] = read-out: % Germination (125 μM), Table 5, compound 125 μM, 6 mM taurocholate, 12 mM glycine, 100% indicates no inhibition
[10] = read-out: % Germination, Table 2, compound 125 μM, 6 mM taurocholate, 12 mM glycine, ± standard deviation
[11] = Table 4, 6 mM taurocholate, 12 mM glycine, ± standard deviation

C[C@H](CCc1ncc2ccccc2n1)[C@H]1CC[C@H]2[C@@H]3[C@H](O)C[C@@H]4C[C@H](O)CC[C@]4(C)[C@H]3C[C@H](O)[C@]12C [Compound 29]
Degradation on incubation with feces [1]: not degraded
IC50 [2, 7]: 22 ± 3 µM
activity at 125 µM [2, 8]: 17 ± 3%

C[C@H](CCC(=O)Nc1ccccc1)[C@H]1CC[C@H]2[C@@H]3CCC4CCCC[C@]4(C)[C@H]3CC[C@]12C (some centres unmarked) [N-(Phenyl)-cholan-24-amide]
IC50 (C. difficile 630 strain [3]): 270 µM
IC50 ([4]; R20291 strain, read-out: IC50 against R20291 strain): 1.8 µM

C[C@H](CCC(=O)Nc1ccccc1)[C@H]1CC[C@H]2[C@@H]3[C@H](O)C[C@@H]4C[C@H](O)CC[C@]4(C)[C@H]3CC[C@]12C [Compound 53]
Activity against 630 strain (C. difficile 630 strain [3]): inactive up to the maximum tested concentration
IC50 ([2]; Table 5, 6 mM taurocholate, 12 mM glycine): 4 ± 0.5 µM
activity at 125 µM [2, 9]: 14 ± 0.6%

C[C@H](CCC(=O)O)[C@H]1CC[C@H]2[C@@H]3[C@H](O)C[C@@H]4C[C@H](O)CC[C@]4(C)[C@H]3CC[C@]12C [chenodeoxycholate]
Ki [5]: 378 µM

Cc1ccc(F)cc1NC(=O)CC[C@@H](C)[C@H]1CC[C@H]2[C@@H]3CC[C@@H]4C[C@H](O)CC[C@]4(C)[C@H]3CC[C@]12C [Compound 64]
activity at 125 µM [2, 9]: 100%

C[C@H](CCC(=O)Nc1cccc(S(=O)(=O)O)c1)[C@H]1CC[C@H]2[C@@H]3[C@H](O)C[C@@H]4C[C@H](O)CC[C@]4(C)[C@H]3CC[C@]12C [chenodeoxycholic analog of CamSA]
IC50 (C. difficile 630 strain [3]): 6500 µM
Potency relative to the cholate derivative CamSA (less potent) (C. difficile 630 strain [6]): approximately 100 fold

C[C@H](CCC(=O)N1CCc2cc(Br)ccc21)[C@H]1CC[C@H]2[C@@H]3[C@H](O)C[C@@H]4C[C@H](O)CC[C@]4(C)[C@H]3C[C@H](O)[C@]12C [Compound 6]
activity at 125 µM [2, 10]: 90 ± 3%
IC50 ([2]; read-out: IC50 against the R20291 strain, R20291 strain): 0.4 µM

C[C@H](CCc1nc2ccccc2s1)[C@H]1CC[C@H]2[C@@H]3[C@H](O)C[C@@H]4C[C@H](O)CC[C@]4(C)[C@H]3C[C@H](O)[C@]12C [Compound 47]
IC50 ([2]; Table 4, 6 mM taurocholate, 12 mM glycine): 6 ± 4 µM
% Germination [2, 11]: −6 ± 0.05%

C[C@H](CCc1ncc2cccc(F)c2n1)[C@H]1CC[C@H]2[C@@H]3[C@H](O)C[C@@H]4C[C@H](O)CC[C@]4(C)[C@H]3C[C@H](O)[C@]12C [Compound 38]
IC50 [2, 7]: 79 ± 23 µM
activity at 125 µM [2, 8]: 7 ± 0.7%

C[C@H](CCc1nc2ccccc2o1)[C@H]1CC[C@H]2[C@@H]3[C@H](O)C[C@@H]4C[C@H](O)CC[C@]4(C)[C@H]3C[C@H](O)[C@]12C [Compound 52]
% Germination [2, 11]: 83 ± 8%

C[C@H](CCC(=O)N1CCCc2ccccc21)[C@H]1CC[C@H]2[C@@H]3[C@H](O)C[C@@H]4C[C@H](O)CC[C@]4(C)[C@H]3C[C@H](O)[C@]12C [Compound 8]
IC50 ([2]; Table 2, 6 mM taurocholate, 12 mM glycine): 22 ± 3 µM
activity at 125 µM [2, 10]: 17 ± 3%

C[C@H](CCC(=O)N1CCc2cc(Br)ccc2C1)[C@H]1CC[C@H]2[C@@H]3[C@H](O)C[C@@H]4C[C@H](O)CC[C@]4(C)[C@H]3C[C@H](O)[C@]12C [Compound 13]
activity at 125 µM [2, 10]: 100%

C[C@H](CCc1ncc2cc(Cl)ccc2n1)[C@H]1CC[C@H]2[C@@H]3[C@H](O)C[C@@H]4C[C@H](O)CC[C@]4(C)[C@H]3C[C@H](O)[C@]12C [Compound 34]
activity at 125 µM [2, 8]: 59 ± 0.2%

Cc1nc(CC[C@@H](C)[C@H]2CC[C@H]3[C@@H]4[C@H](O)C[C@@H]5C[C@H](O)CC[C@]5(C)[C@H]4C[C@H](O)[C@]23C)nc2ccccc12 [Compound 30]
IC50 [2, 7]: 37 ± 4 µM
activity at 125 µM [2, 8]: 35 ± 5%

C[C@H](CCc1nc2ccccc2o1)[C@H]1CC[C@H]2[C@@H]3[C@H](O)C[C@@H]4C[C@H](O)CC[C@]4(C)[C@H]3C[C@H](O)[C@]12C [Compound 51]
% Germination [2, 11]: 80 ± 4%

C[C@H](CCc1ncc2ccc(F)cc2n1)[C@H]1CC[C@H]2[C@@H]3[C@H](O)C[C@@H]4C[C@H](O)CC[C@]4(C)[C@H]3C[C@H](O)[C@]12C [Compound 35]
activity at 125 µM [2, 8]: 57 ± 2%

COc1ccccc1NC(=O)CC[C@@H](C)[C@H]1CC[C@H]2[C@@H]3CC[C@@H]4C[C@H](O)CC[C@]4(C)[C@H]3CC[C@]12C [Compound 62]
% Germination (125 μM) ([2]; Table 5, compound 125 μM, 6 mM taurocholate, 12 mM glycine, 100% indicates no inhibition): 100%

C[C@H](CCC(=O)Nc1cccc(S(=O)(=O)O)c1)[C@H]1CC[C@H]2[C@@H]3[C@H](O)C[C@@H]4C[C@H](O)CC[C@]4(C)[C@H]3C[C@H](O)[C@]12C [CamSA]
IC50 (C. difficile 630 strain [3]): 58 µM
Activity against 630 strain (C. difficile 630 strain [3]): active
Ki [5]: 50 µM
Activity against R20291 strain ([4]; hypervirulent R20291 strain): no inhibitory or prophylactic activity; also recorded: inactive
